This note sets out measurements from patent publication US9220706B2, “Inhibition of leukemic stem cells by PP2A activating agents” (Ohio State Innovation Foundation, priority 2012, dated 2015).

The subject of one assay is JAK2. Kind of assay: Intracellular flow staining of active JAK2 (pJAK2). It is filed as cell-based, human. The note with it: CML CFSE^max/CD34^+ cells. The procedure: Flow cytontetric analysis and sorting of HSCs. Primary CD34^+ cells were isolated by magnetic cell sorting (CD34 MultiSort; Miltenyi Biotec) and kept in IMDM supplemented with 30% FBS, 2 mM Lglutamine, rhIL-3 (20 ng/ml), rhIL-6 (20 ng/ml), rhFlt-3 ligand (100 ng/ml), and rhKL (100 ng/ml) (Stem Cell Technologies). The CD34+ fraction derived from the BM of healthy donors and the PB or BM from CML patients was stained with anti-CD34 FITC or PE, and anti-CD38 PE-Cy7 (BD Biosciences). The Lin− fraction of murine mononuclear cells was stained with anti-Sca-1 PeCy7 (BD Biosciences) and anti-c-kit APC-AlexaFluor750 (eBioscience), The CD34^+/CD38^− or the Lin−/Sca-1+/c-Kit+ (LSK) fractions were sorted by fluorescence-activated cell sorting with a FACS Aria II instrument (BD Biosciences). […]

The test system of the next assay is β-catenin. Kind of assay: β-catenin immunofluorescence. The class given is cell-based, human. The text has this: Immunofluorescence and proximity ligation assay. CD34^+/CD38^− cells from CML patient samples or LSK cells derived from induced leukemic mice were sorted, treated in liquid culture with the indicated drugs and cytospun onto glass slides. Slides were fixed in 3.7% formaldehyde, penneabilized with 0.05% Triton X-100, and stained with an Anti-®-catenin primary antibody (Cell signaling), a secondary goat F(ab′) anti-rabbit conjugated to Alexa Fluor 647, and the nuclear stain DAPI (Invitrogen); slides were mounted with Slowfade antifade reagent (Invitrogen). Microphotographs were obtained with a Zeiss LSM 510 confocal laser-scanning microscope with C-Apochromat 63/1.2 W objective. A minimum of three fields for each slide were acquired. For the Proximity Ligation Assay (PLA) CD34+/CD38− CML cells were treated, fixed, and permeabilized as described above. The slides were then simultaneously stained with a mix of mouse anti-PP2A (Millipore) and rabbit anti-SET (Globozyme) antibodies. The PLA procedure (Duolink; Olink Bioscience) was performed according to manufacturer instructions. An average of 20 z-stack ([…]) were captured with a Zeiss LSM 510 confocal laser-scanning microscope with C-Apochromat 63/1.2 W objective; at least three fields/slide were acquired. Three-dimensional projections were generated and positive signals/cell were calculated by ImageJ software (NIH).

A further assay has as its target T1, PP2A (Homo sapiens, UniProt P67775).
T1 construct: PP2Ac assays from whole cell lysates; endogenous in cells; host or cells: CD34+/CD38- and CD34+/CD38+ primary CML and normal bone-marrow cells; immunoprecipitated with Millipore PP2Ac antibody
Kind of assay: PP2A phosphatase assay. The class given is cell-based. As to conditions: CD34+/CD38− CML cells; FTY720 at concentration non-toxic for normal CD34+ progenitors. The protocol:
PP2A phosphatase assay. PP2Ac assays from whole cell lysates were carried out using the PP2Ac immunoprecipitation phosphatase assay kit (Millipore). Briefly, protein lysates (50 μg) in 100 μl of 20 mM Hepes. pH 7.0, 100 mM NaCl, 5 μg of PP2Ac antibody (Millipore), and 25 μl of Protein A-agarose were added to 400 μl of 50 mM Tris, pH 7.0, 100 mM CaCl2, and IPs were carried out at 4° C. for 2 h. IPs were used in the phosphatase reaction according to the manufacturer's protocol.

The subject of assay [1] is CML cells (CFSE^max/CD34^+, CD34^+/CD38^−, CD34^+). Kind of assay: Annexin-V/7-AAD apoptosis staining. It is filed as cell-based, human. The procedure:
CFSE-mediated tracking of cell division. Carboxyfluorescein diacetate succinimidyl diester (CFSE)-stained cells (CellTrace CFSE Proliferation Kit: Invitrogen) were cultured in the presence of the indicated drugs (dosed at time zero and at day three), and the cells were harvested after 3 or 6 days in culture, and stained with anti-CD34 PE, Annexin-V V450, and the viability stain 7-AAD (BD Bioscience) to determine the number of viable quiescent cells (CFSEmax/CD34^+/7-AAD− cells) and the percentage of quiescent and apoptosis-committed cells (CFSEmax/CD34+/Annexin V+/7-AAD±). Cells were sorted into dividing and quiescent populations for Western blot analysis. For assessment of mouse quiescent leukemic HSCs, Lin- cells from 8 week-induced SCLtTA/BCR-ABL1 mice were CFSE-stained and used as described above. Quiescent cells (CFSE^max/CD34^+) were reported as a fraction of the initial number of CD34^+ cells.

The next assay concerns CD34+/CD38− CML cells. As to the kind of experiment: CFC/replating assay, CML cells. The class given is cell-based, human. The protocol:
Long term culture-initiating cell (LTC-IC) and Colony-forming cell (CFC)/replating assays. 2×10^6 mononuclear CML cells were cultured with a 1:1 mixture of irradiated (80 Gy) IL-3/G-CSF-producing M2-10B4 and IL-3/KL-producing SI/SI murine fibroblasts in MyeloCult H5100 (StemCell Technologies) supplemented with hydrocortisone. Drugs were present during the first week of culture. Medium was replaced after 7 days, followed by weekly half-medium changes. After 6 weeks, adherent and floating cells were harvested and 5×10^4 cells plated into MethoCult H4435. LTC-IC-derived colonies were scored after 14 days. For CFC/replating, individual 14-day colonies from 10^3-10^5 CD34+/CD38− CML or 0.2×10^3-10^3 leukemic LSK cells plated in 0.9% H4435 or M3234 MethoCult, respectively, containing KL, G-CSF, GM-CSF, IL-3, IL-6, and Epo were replated and scored 2 weeks later.

T1 sequence (P67775 whole entry): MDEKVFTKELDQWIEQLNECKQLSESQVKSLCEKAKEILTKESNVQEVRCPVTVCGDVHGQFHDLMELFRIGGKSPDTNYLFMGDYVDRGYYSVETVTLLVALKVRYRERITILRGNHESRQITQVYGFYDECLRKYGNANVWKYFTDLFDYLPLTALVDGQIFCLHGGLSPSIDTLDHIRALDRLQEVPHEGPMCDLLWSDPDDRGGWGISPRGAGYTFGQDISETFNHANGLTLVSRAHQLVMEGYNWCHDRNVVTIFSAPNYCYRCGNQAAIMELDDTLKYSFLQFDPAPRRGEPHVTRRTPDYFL

As for `CCCCCCCCc1ccc(CCC(N)(CO)CO)cc1` [FTY720], the “JAK2 activity (pJAK2)” value in the assay on JAK2 was “suppressed”. Moreover, in the assay with β-catenin (CD34^+/CD38^− CML, leukemic LSK, and 32D-BCR/ABL cells), the β-catenin degradation result is listed as “induced β-catenin degradation”. In addition, in the assay on β-catenin (Ph^+ CD34^+/CD38^− cells), the β-catenin expression entry is on record as “markedly decreased”. Also, the “PP2A activity in leukemic HSCs” value on PP2A is listed as “restored PP2A activity at levels superimposable to those observed in the identical cell fraction from healthy donors”. The “apoptosis of CD34^+ CML progenitors in combination with imatinib” value in assay [1] (CD34^+ CML progenitors n=10) is on record as “synergizes with imatinib”. In addition, in assay [1] (CFSE^max/CD34^+ or CD34^+/CD38^− CML cells), the “apoptosis of quiescent/HSC-enriched CML cells” value is “triggered apoptosis”. For the same molecule, the “reduction in replating efficiency” value with CD34+/CD38− CML cells is 70-90%.
